From ChEMBL document CHEMBL4257535, “Design, synthesis and biological evaluation of AKT inhibitors bearing a piperidin-4-yl appendant” (Medchemcomm, 2018)
pIC50: −log10 of the molar value. Calls of active or inactive are those of the source. No cut-off for these calls is given here.

Experiments:
[1] = target: T1, RAC-alpha serine/threonine-protein kinase (Homo sapiens, UniProt P31749); experiment: Inhibition of AKT1 (unknown origin) using biotin-labelled STK as substrate measured after 45 mins by HTRF method
T1 sequence (P31749 whole entry): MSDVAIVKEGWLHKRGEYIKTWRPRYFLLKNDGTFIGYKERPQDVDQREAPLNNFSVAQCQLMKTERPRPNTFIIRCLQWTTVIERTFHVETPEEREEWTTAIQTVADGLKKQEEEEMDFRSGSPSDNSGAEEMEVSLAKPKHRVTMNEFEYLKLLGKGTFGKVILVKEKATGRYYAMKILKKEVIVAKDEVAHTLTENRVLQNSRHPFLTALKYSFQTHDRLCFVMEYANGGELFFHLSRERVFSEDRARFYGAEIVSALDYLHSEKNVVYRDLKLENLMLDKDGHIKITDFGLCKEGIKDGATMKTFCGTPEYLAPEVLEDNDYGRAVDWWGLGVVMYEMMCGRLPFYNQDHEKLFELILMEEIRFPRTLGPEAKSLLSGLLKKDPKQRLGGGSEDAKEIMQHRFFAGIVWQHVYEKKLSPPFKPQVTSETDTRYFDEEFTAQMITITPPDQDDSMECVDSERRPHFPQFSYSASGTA

[2] = target: T1, RAC-alpha serine/threonine-protein kinase; experiment: Inhibition of AKT1 (unknown origin) at 1 uM using biotin-labelled STK as substrate measured after 45 mins by HTRF method relative to control
PC-3 = experiment: Antiproliferative activity against human PC3 cells after 72 hrs by MTT assay; assay type: functional, cell-based; details: PC-3, 72 h
[3] = target: T1, RAC-alpha serine/threonine-protein kinase; experiment: Inhibition of AKT1 (unknown origin) at 0.1 uM using biotin-labelled STK as substrate measured after 45 mins by HTRF method relative to control
in vitro [4] = experiment: in vitro; parameters: dose or concentration left out as unconfirmed; details: human, liver microsomes
Description: Intrinsic clearance in human liver microsomes at 10 mM preincubated for 10 mins followed by NADPH addition and measured after 5 to 60 mins by LC-MS analysis

in vitro [5] = experiment: in vitro; parameters: dose or concentration left out as unconfirmed; details: human, liver microsomes; remark: listed apart in the source
Description: Half life in human liver microsomes at 10 mM preincubated for 10 mins followed by NADPH addition by LC-MS analysis

in vitro [6] = experiment: in vitro; parameters: dose or concentration left out as unconfirmed; details: human, liver microsomes; remark: listed apart in the source
Description: Stability in human liver microsomes assessed as parent compound remaining at 10 mM preincubated for 10 mins followed by NADPH addition and measured after 60 mins by LC-MS analysis

[7] = target: T1, RAC-alpha serine/threonine-protein kinase; experiment: Inhibition of AKT1 (unknown origin) at 50 nM using biotin-labelled STK as substrate measured after 45 mins by HTRF method relative to control
[8] = target: T1, RAC-alpha serine/threonine-protein kinase; experiment: Inhibition of AKT in human PC3 cells assessed as reduction in GSK3beta phosphorylation at 1 to 10 uM after 4 hrs by Western blot analysis; assay type: cell-based

O=C(N1CCN(c2ncnc3[nH]nc(Br)c23)CC1)C1(c2ccc(Cl)c(Cl)c2)CCNCC1
pIC50 [1]: 7.52 | inhibition [2]: 93.8% | pIC50 (PC-3): 4.99 | inhibition [3]: 90.9%

C[C@]12CC[C@H]3[C@@H](CCC4=CC(=O)CC[C@@]43C)[C@@H]1CC[C@@H]2O [TESTOSTERONE]
CLint scaled (in vitro [4]): 74 mL/min/kg | microsomal CLint (in vitro [4]): 82.2 µL/min/mg | half-life (in vitro [5]): 16.9 min | remaining at 1 h (in vitro [6]): 8.1%

O=C(N1CCN(c2ncnc3ccccc23)CC1)C1(c2ccc(F)cc2)CCNCC1
inhibition [2]: 23% | pIC50 (PC-3): 4.86

O=C(N1CCN(c2ncnc3[nH]nc(Br)c23)CC1)C1(c2ccc(Cl)cc2)CCNCC1
pIC50 [1]: 7.57 | inhibition [2]: 96.7% | pIC50 (PC-3): 5.01 | inhibition [3]: 86.7%

O=C(N1CCN(c2ncnc3[nH]ncc23)CC1)C1(c2ccc(F)cc2)CCNCC1
inhibition [2]: 7.4% | pIC50 (PC-3): < 4.40

O=C(N1CCN(c2ncnc3[nH]cnc23)CC1)C1(c2ccc(Cl)cc2)CCNCC1
inhibition [2]: 45.6% | pIC50 (PC-3): < 4.40

O=C(N1CCN(c2ncnc3[nH]cnc23)CC1)C1(c2ccc(Br)cc2)CCNCC1
inhibition [2]: 68% | pIC50 (PC-3): < 4.40

O=C(N1CCN(c2ncnc3ccccc23)CC1)C1(c2ccc(Cl)cc2)CCNCC1
inhibition [2]: 34.2% | pIC50 (PC-3): < 4.40

O=C(N1CCN(c2ncnc3ccccc23)CC1)C1(c2ccc(Cl)c(Cl)c2)CCNCC1
inhibition [2]: 21.9% | pIC50 (PC-3): 4.85

O=C(N1CCN(c2ncnc3[nH]cnc23)CC1)C1(c2ccc(F)cc2)CCNCC1
inhibition [2]: 94.2% | pIC50 (PC-3): < 4.40

O=C(N1CCN(c2ncnc3[nH]nc(Br)c23)CC1)C1(c2ccc(F)cc2)CCNCC1
inhibition [2]: 93.2% | pIC50 (PC-3): 4.44 | inhibition [3]: 53.3%

O=C(Cc1ccc(Cl)cc1)N1CCN(c2ncnc3[nH]cc(Br)c23)CC1
inhibition [7]: 69.7% | pIC50 (PC-3): 4.68

CCn1c(-c2nonc2N)nc2c(C#CC(C)(C)O)ncc(OC[C@H]3CCCNC3)c21 [GSK-690693]
inhibition [8]: Active | inhibition [2]: 99.5% | pIC50 (PC-3): 4.85 | inhibition [3]: 98.5%

O=C(N1CCN(c2ncnc3ccccc23)CC1)C1(c2ccc(Br)cc2)CCNCC1
inhibition [2]: 6.1% | pIC50 (PC-3): 4.64

O=C(N1CCN(c2ncnc3[nH]ncc23)CC1)C1(c2ccc(Br)cc2)CCNCC1
inhibition [2]: 11.6% | pIC50 (PC-3): < 4.40

O=C(N1CCN(c2ncnc3[nH]nc(Cl)c23)CC1)C1(c2ccc(Br)cc2)CCNCC1
pIC50 [1]: 7.48 | inhibition [2]: 95.4% | pIC50 (PC-3): 4.49 | inhibition [3]: 84.5%

O=C(N1CCN(c2ncnc3[nH]nc(Cl)c23)CC1)C1(c2ccc(Cl)cc2)CCNCC1
pIC50 [1]: 7.18 | inhibition [2]: 91.9% | pIC50 (PC-3): 4.71 | inhibition [3]: 83.4%

O=C(N1CCN(c2ncnc3[nH]ncc23)CC1)C1(c2ccc(Cl)c(Cl)c2)CCNCC1
inhibition [2]: 52.1% | pIC50 (PC-3): < 4.40

O=C(O)Cc1ccccc1Nc1c(Cl)cccc1Cl [DICLOFENAC]
CLint scaled (in vitro [4]): 123 mL/min/kg | microsomal CLint (in vitro [4]): 136 µL/min/mg | half-life (in vitro [5]): 10.2 min

O=C(N1CCN(c2ncnc3[nH]nc(Cl)c23)CC1)C1(c2ccc(F)cc2)CCNCC1
inhibition [2]: 86.7% | pIC50 (PC-3): 4.43 | inhibition [3]: 60.9%

O=C(N1CCN(c2ncnc3[nH]cnc23)CC1)C1(c2ccc(Cl)c(Cl)c2)CCNCC1
inhibition [2]: 51.4% | pIC50 (PC-3): 4.47

O=C(Cc1ccc(Cl)c(Cl)c1)N1CCN(c2ncnc3[nH]cc(Br)c23)CC1
inhibition [7]: 65.5% | pIC50 (PC-3): 4.50

O=C(N1CCN(c2ncnc3[nH]ncc23)CC1)C1(c2ccc(Cl)cc2)CCNCC1
inhibition [2]: 38.7% | pIC50 (PC-3): < 4.40

O=C(N1CCN(c2ncnc3[nH]nc(Br)c23)CC1)C1(c2ccc(Br)cc2)CCNCC1
pIC50 [1]: 7.28 | inhibition [2]: 96.5% | pIC50 (PC-3): 4.82 | inhibition [3]: 90.6%
